Test results reported in patent US12447171B2 (CELGENE QUANTICEL RESEARCH, INC., priority 2019, dated 2025).

System: MV4-11 xenograft models
Assay: Disseminated MV4-11 xenograft survival study
Format: in vivo
Details: MV4-11, NCG mice, vehicle=29.5
Description: LEED models oral administration of AZA, while HELD models intravenous or subcutaneous administration of AZA.
On each day of dosing, an appropriate amount of gilteritinib was dissolved in 0.5% methylcellulose in DI water to yield a dosing solution at 0.4 mg/mL. Each week, an appropriate amount of venetoclax was dissolved in 10% ethanol:30% PEG400:60% phosal 50 propylene glycol to yield a dosing solution at 10 mg/mL. […] Each test mouse received 5×10^6 MOLM-13 cells or 10^7 MV4-11 cells (0.2 mL cell suspension) by tail vein injection. Dosing was initiated three days after tumor cell inoculation, which was designated as Day 1 of the study. […] […] Vehicle was administered both IP and PO. The dosing volume for all treatments was 10 mL/kg, scaled to the weight of each individual animal.
Animals were monitored individually for an endpoint of moribundity due to progression of the leukemia. Full hind limb paralysis, severe ocular proptosis, or moribundity was considered sufficient for euthanasia due to tumor progression. Moribund animals were defined as sick animals unable to reach food and water. These deaths were classified as death on survival study. The time to endpoint (TTE), in days, was recorded for each mouse that died of its disease or was euthanized due to extensive tumor progression. […] An animal classified as having died from treatment-related (TR) causes was assigned a TTE value equal to the day of death. An animal classified as having died from non-treatment-related (NTR) causes, or used for sampling before endpoint, was excluded from TTE calculations and all further analyses. The median TTE value was calculated for each group. The median TTE of treated mice was expressed as a percentage of the median TTE of the control mice (% T/C), and the increase in life span (ILS) was calculated as: ILS=% T/C−100%, where T=median TTE treated, and C=median TTE control. Thus, if T=C, ILS=0%.
Animals were weighed daily on Days 1-5, then twice per week until the completion of the study. […] Individual body weight loss was monitored as per protocol and any animal that exceeded the limits for acceptable body weight loss was euthanized. Group mean body weight loss also was monitored as per protocol. Dosing was suspended in any group that exceeded the limits for acceptable mean body weight loss. If mean body weight recovered, then dosing may be resumed in that group, but at a lower dosage or less frequent dosing schedule. […] Survival was analyzed by the Kaplan-Meier method, based on TTE values. The logrank (Mantel-Cox) and Gehan-Breslow-Wilcoxon tests determined the significance of the difference between the overall survival experiences (survival curves) of two groups, based on TTE values.

SMILES: Nc1ncn([C@@H]2O[C@H](CO)[C@@H](O)[C@H]2O)c(=O)n1 [5-azacytidine, 4-amino-1-B-D-ribofuranosyl-1,3,5-triazin-2(1H)-one]
- Median survival (HELD 5-azacytidine 3 mg/kg qd×5, alone or with venetoclax or midostaurin 100 mg/kg qd×21): 35
- Median survival (LEED 5-azacytidine 1 mg/kg qd×5×3, alone or with venetoclax or midostaurin 100 mg/kg qd×21): 35
